Results reported in patent US10551389B2, “Target binding molecules identified by kinetic target-guided synthesis” (UNIVERSITY OF SOUTH FLORIDA, priority 2013, dated 2020).

What was measured:
Mcl-1 = Mcl-1 (Homo sapiens, UniProt Q07820); assay: Inhibition of Mcl-1 (disruption of Mcl-1/Bim interaction); assay type: binding; details: for inhibition at 25 µM / % Inhibition (25 μM) Mcl-1: compound at 25 μM; for inhibition at 50 µM / % Inhibition (50 μM) Mcl-1: compound at 50 μM
Protocol: (§1) In a subsequent study, a structurally diverse library of forty five thio acids and thirty eight sulfonyl azides (identified above) was screened in parallel against Mcl-1 and Bcl-XL using the above mentioned approach. Several potential hit combinations were identified (Table 3). All of these kinetic TGS hit compounds were synthesized (identified above and in Table 3). All the reactions were performed at 20-30 mg scale. The 9-fluorenylmethyl thioester was placed in a 2.0 mL vial and 3.5% DBU/dry DMF solution was added (per 1 μmol of thioester, 4.7 μL, of 3.5% DBU/dry DMF solution was added) and the reaction was stirred for one minute. Then the sulfonylazide (1 eq to thioester) was added to the reaction mixture and immediately bubbling was observed. After the reaction was completed (approximately one minute, monitored by LC-MS) water (200 μL) was added and the pH was adjusted to 7.0 using 1M HCl solution. The reaction mixture was extracted with DCM until there is no product in the aqueous layer (checked by TLC or LC-MS). The product was purified by flash chromatography. Testing of these acylsulfonamides has shown that the hit compounds disrupt the Bcl-XL/Bim or Mcl-1/Bim interaction (Table 3).

Bcl-XL = Bcl-XL (Homo sapiens, UniProt Q07817); assay: Inhibition of Bcl-XL (disruption of Bcl-XL/Bim interaction); assay type: binding; details: for inhibition at 25 µM / % Inhibition (25 μM) Bcl-XL: compound at 25 μM; for % Inhibition (50 μM) Bcl-XL / inhibition at 50 µM: compound at 50 μM
Sequence of Bcl-XL (Q07817 whole entry, species assumed): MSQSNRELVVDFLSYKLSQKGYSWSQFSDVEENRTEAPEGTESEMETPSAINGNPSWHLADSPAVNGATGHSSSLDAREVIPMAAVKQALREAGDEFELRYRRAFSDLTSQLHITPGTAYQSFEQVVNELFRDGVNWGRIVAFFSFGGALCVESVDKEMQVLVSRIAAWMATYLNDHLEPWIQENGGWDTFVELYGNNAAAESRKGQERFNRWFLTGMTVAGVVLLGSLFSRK
Protocol: as §1

Sequence of Mcl-1 (Q07820 whole entry, species assumed): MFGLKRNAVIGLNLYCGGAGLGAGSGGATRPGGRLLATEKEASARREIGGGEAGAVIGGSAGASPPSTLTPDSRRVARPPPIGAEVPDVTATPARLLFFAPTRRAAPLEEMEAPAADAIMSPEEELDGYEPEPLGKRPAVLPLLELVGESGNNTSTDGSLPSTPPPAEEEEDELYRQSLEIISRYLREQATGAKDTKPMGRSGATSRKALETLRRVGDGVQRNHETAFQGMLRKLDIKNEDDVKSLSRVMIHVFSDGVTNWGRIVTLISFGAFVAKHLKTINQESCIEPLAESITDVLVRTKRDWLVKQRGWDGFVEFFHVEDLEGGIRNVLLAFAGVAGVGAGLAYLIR

IC50 (Mcl-1) | inhibition at 25 µM (Mcl-1) | inhibition at 50 µM (Mcl-1) | inhibition at 25 µM (Bcl-XL) | % Inhibition (25 μM) Mcl-1 (Mcl-1) | % Inhibition (50 μM) Mcl-1 (Mcl-1) | % Inhibition (25 μM) Bcl-XL (Bcl-XL) | % Inhibition (50 μM) Bcl-XL (Bcl-XL) | inhibition at 50 µM (Bcl-XL) | IC50 (Bcl-XL) | SMILES
5.9 µM | 61.2% | > 99% | 9.5% |  |  |  |  |  |  | O=C(NS(=O)(=O)c1ccc(CN(CCSc2ccccc2)Cc2ccc3c(c2)OCO3)cc1)c1ccc(OC(F)(F)F)cc1 [SZ31TA8]
 |  |  |  | 56.2% | 59.5% | 17.3% | 13.3% |  |  | O=C(NS(=O)(=O)c1ccc(CN(CCSc2ccccc2)Cc2ccc3c(c2)OCO3)cc1)c1ccc(-c2ccc(F)cc2)cc1 [SZ31TA14]
14 µM | 82% |  | 18.5% |  |  |  |  | 21.4% |  | O=C(Cn1c2ccccc2c2ccccc21)NS(=O)(=O)c1ccc(CN(CCSc2ccccc2)Cc2ccc3c(c2)OCO3)cc1 [SZ31TA15]
16.8 µM | 84.3% | 88.6% | 40.2% |  |  |  |  | 77.7% | 31.3 µM | O=C(NS(=O)(=O)c1ccc(CN(CCSc2ccccc2)Cc2ccc3c(c2)OCO3)cc1)c1ccc(CCc2ccccn2)cc1 [SZ31TA17]
20 µM | 59.9% |  | 8.2% |  |  |  |  | 15.5% |  | COc1ccc(Cc2ccc(C(=O)NS(=O)(=O)c3ccc(CN(CCSc4ccccc4)Cc4ccc5c(c4)OCO5)cc3)cc2)c(OC)c1OC [SZ31TA24]
 |  |  |  | 32.4% | 30.6% | <2.0% | <2.0% |  |  | O=C(NS(=O)(=O)c1ccc(CN(CCSc2ccccc2)Cc2ccc3c(c2)OCO3)cc1)c1ccc2c(ccn2Cc2ccc(C(F)(F)F)cc2C(F)(F)F)c1 [SZ31TA30]
 |  |  |  | <2.0% | <2.0% | <2.0% | <2.0% |  |  | O=C(NS(=O)(=O)c1ccc(CN(CCSc2ccccc2)Cc2ccc3c(c2)OCO3)cc1)c1ccc(C(c2c[nH]c3ccccc23)c2c[nH]c3ccccc23)cc1 [SZ31TA31]
 |  |  |  | <2.0% | <2.0% | <2.0% | <2.0% |  |  | Cn1cc(C(=O)C2CCCCC2)c2cc(C(=O)NS(=O)(=O)c3ccc(CN(CCSc4ccccc4)Cc4ccc5c(c4)OCO5)cc3)ccc21 [SZ31TA40]
 |  |  |  | 14.9% | 36.5% | <2.0% | <2.0% |  |  | O=C(NS(=O)(=O)c1ccc(CN(CCSc2ccccc2)Cc2ccc3c(c2)OCO3)cc1)c1cccc(NCCc2ccccc2)c1 [SZ31TA44]
 |  |  |  | 53.8% | 40.2% | 7.2% | <2.0% |  |  | Cn1cc(C(=O)c2cccs2)c2cc(C(=O)NS(=O)(=O)c3ccc(CN(CCSc4ccccc4)Cc4ccc5c(c4)OCO5)cc3)ccc21 [SZ31TA45]
19.1 µM | 72.2% |  | 26% |  |  |  |  | 59.4% |  | Cc1noc(C)c1-c1ccc(S(=O)(=O)NC(=O)c2ccc(CN3C(=O)C(c4ccc(F)cc4F)=C(c4ccc(F)cc4F)C3=O)cc2)cc1 [SZ32TA42]
29.3 µM | 49% | > 99% | 19.1% |  |  |  |  | 58% |  | CN(C)C(=O)c1cccc(-c2ccc(S(=O)(=O)NC(=O)c3ccc(CN4C(=O)C(c5ccc(F)cc5F)=C(c5ccc(F)cc5F)C4=O)cc3)cc2)c1 [SZ34TA42]
 |  |  |  | <2.0% | 22.7% | 21.8% | <2.0% |  |  | O=C(NS(=O)(=O)c1ccc(-c2cc3ccccc3s2)cc1)c1ccc(CN2C(=O)C(c3ccc(F)cc3F)=C(c3ccc(F)cc3F)C2=O)cc1 [SZ37TA42]
60.6 µM |  |  |  | 30.8% | 44.7% | 83.7% | 90.6% |  | 2.08 µM | O=C(NS(=O)(=O)c1ccc(NCCSc2ccccc2)c([N+](=O)[O-])c1)c1ccc(CCc2ccccn2)cc1 [SZATA17]
